Results reported in patent US4619941A, “N-[(1H-imidazol-1-yl)alkyl]-1H-indolecarboxamides useful as thromboxane synthetase inhibitors and antihypertensive agents” (American Cyanamid Company, priority 1984, dated 1986).

Legend:
[1] = target: T1, thromboxane synthetase (Rattus norvegicus, UniProt P49430); assay: Inhibition of thromboxane (TXA2) formation, determined as TXB2 formed by washed SHR platelets (direct RIA); assay type: cell-based, Okamoto-Aoki spontaneously hypertensive rats (SHR); conditions: Dose 10^-4 M, 10 minutes at 37° C., pH 7.4
T1 construct: The platelets were isolated by centrifuging the PRP for 10 minutes at 1060 xg; endogenous in cells; host or cells: washed platelets from arterial blood of Okamoto-Aoki spontaneously hypertensive rats (Taconic Farms), 19 to 24 weeks old
T1 sequence (P49430 1-533): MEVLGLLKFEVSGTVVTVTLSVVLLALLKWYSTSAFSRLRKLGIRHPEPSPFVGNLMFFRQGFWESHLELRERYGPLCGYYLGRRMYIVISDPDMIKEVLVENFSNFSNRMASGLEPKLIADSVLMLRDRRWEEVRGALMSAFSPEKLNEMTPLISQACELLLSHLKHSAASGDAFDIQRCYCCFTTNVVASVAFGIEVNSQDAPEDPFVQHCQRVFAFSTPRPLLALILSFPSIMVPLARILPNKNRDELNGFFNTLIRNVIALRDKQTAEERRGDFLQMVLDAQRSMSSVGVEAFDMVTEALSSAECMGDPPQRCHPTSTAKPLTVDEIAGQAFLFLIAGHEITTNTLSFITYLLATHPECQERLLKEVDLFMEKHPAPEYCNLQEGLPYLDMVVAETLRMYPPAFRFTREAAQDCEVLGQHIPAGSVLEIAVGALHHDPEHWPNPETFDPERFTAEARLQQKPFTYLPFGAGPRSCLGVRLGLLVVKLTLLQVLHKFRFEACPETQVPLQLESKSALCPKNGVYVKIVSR
Method: The inhibition of thromboxane (TXA2) formation was studied by determining the concentration of thromboxane B2 (TXB2), the stable hydrolysis product of TXA2.
The blood was diluted with 3 ml cold saline and centrifuged at room temperature for 15 minutes at 460 xg. The platelet rich plasma (PRP) was separated. The platelets were isolated by centrifuging the PRP for 10 minutes at 1060 xg and were washed in 4 ml cold oxygenated Krebs phosphate buffer, pH 7.4. the chilled platelets recovered from centrifuging at 800 xg for 10 minutes were resuspended in oxygenated Krebs phosphate buffer and diluted to contain 4.5-6.0×10^4 platelets/μl. […] The samples were incubated for 10 minutes at 37° C. in a metabolic shaker. The reaction was terminated by immersing the tubes in an ice bath and adding 50 μl of 0.5 M citric acid. The samples were centrifuged for 10 minutes in a refrigerated centrifuge and the supernatants thus obtained were decanted and stored at -20° C. The TXB2 content for each sample was determined by a direct radioimmunoassay (RIA) utilizing a TXB2 specific RIA kit purchased from New England Nuclear, Boston, MA and expressed as pg TXB2 formed minute^-1 sample^-1, from which the percent inhibition of TXB2 formation was calculated.

[2] = test system: spontaneously hypertensive rats of the Okamoto strain; assay: Hypotensive activity in spontaneously hypertensive rats, mean arterial blood pressure (method of Chan and Poorvin); assay type: in vivo; conditions: by gavage, 100 mg/kg or less, second identical dose at 24 hours; measured 28 hours after initial dose; SHR average MABP 160±1.5 mm Hg
Method: Male, 16 week old, spontaneously hypertensive rats of the Okamoto strain, from Taconic Farms, Germantown, N.Y., having an average means arterial blood pressure of 160±1.5 mm of mercury are used in the test. One to three rats are used per test compound. A rat is dosed by gavage with a test compound, suspended in 2% pre-boiled starch at a concentration of 50 mg/ml, at a dose of 100 mg/kg of body weight or less with 0.9% sodium chloride loading at a dose of 25 ml/kg of body weight. A second identical dose of the test compound, without sodium chloride loading is given 24 hours later. At 28 hours after the initial dose the mean arterial blood pressure is measured by the method of Chan and Poorvin vide supra. The procedure is repeated in a second and third rat when necessary.

Row | Structure (SMILES) | inhibition at 100 µM [1] | MABP (mean arterial blood pressure) [2]
1 | Cc1nccn1CCCNC(=O)c1cc2ccccc2n1C [1-Methyl-N-[3-(2-methyl-1H-imidazol-1-yl)-propyl]-1H-indole-2-carboxamide] | 56% | –
2 | Cc1cn(CCCNC(=O)c2cc3ccccc3n2C)cn1 [1-Methyl-N-[3-(4-methyl-1H-imidazol-1-yl)propyl]-1H-indole-2-carboxamide] | 85% | 136 mm Hg
3 | CC(CNC(=O)c1cc2cc(Cl)ccc2[nH]1)Cn1ccnc1 (stereo not drawn) [5-Chloro-N-[3-(1H-imidazol-1-yl)-2-methylpropyl]-1Hindole-2carboxamide] | 100% | 123 mm Hg
4 | CC(CCNC(=O)c1cc2cc(Cl)ccc2[nH]1)n1ccnc1 (stereo not drawn) [5-Chloro-N-[3-(1H-imidazol-1-yl)-butyl]-1H-indole-2-carboxamide] | 98% | 119 mm Hg
5 | O=C(NCCCn1ccnc1)c1cc2cc(Cl)ccc2[nH]1 [5-Chloro-N-[3-(1H-imidazol-1-yl)propyl]-1H-indole-2-carboxamide] | 95% | –
6 | Cc1cn(CCCNC(=O)c2cc3cc(Cl)ccc3[nH]2)cn1 [5-Chloro-N-[3-(4-methyl-1H-imidazol-1-yl)propyl]-1H-indole-2-carboxamide] | 100% | 135 mm Hg
7 | O=C(NCCCCn1ccnc1)c1cc2cc(Cl)ccc2[nH]1 [5-Chloro-N-[4-(1H-imidazol-1-yl)butyl]-1H-indole-2-carboxamide] | – | 118 mm Hg
8 | O=C(NCCCCCn1ccnc1)c1cc2cc(Cl)ccc2[nH]1 [5-Chloro-N-[5-(1H-imidazol-1-yl)pentyl]-1H-indole-2-carboxamide] | – | 124 mm Hg
9 | O=C(NCCCCCCCCn1ccnc1)c1cc2cc(Cl)ccc2[nH]1 [5-Chloro-N-[8-(1H-imidazol-1-yl)octyl]-1H-indole-2-carboxamide] | 66% | –
10 | COc1ccc2[nH]c(C(=O)NCCCn3ccnc3C)cc2c1 [5-Methoxy-N-[3-(2-methyl-1H-imidazol-1-yl)propyl]-1H-indole-2-carboxamide] | 49% | –
11 | COc1ccc2[nH]c(C(=O)NCCCCn3ccnc3)cc2c1 [5-Methoxy-N-[4-(1H-imidazol-1-yl)butyl]-1H-indole-2-carboxamide] | 100% | 130 mm Hg
12 | Cn1c(C(=O)NCCCn2ccnc2)cc2ccccc21 [N-[3-(1H-Imidazol-1-yl)propyl]-1-methyl-1H-indole-2-carboxamide] | 88% | –
13 | O=C(NCCCn1ccnc1)c1cc2ccccc2[nH]1 [N-[3-(1H-Imidazol-1-yl)propyl]-1H-indole-2-carboxamide] | 94% | 114 mm Hg
14 | O=C(NCCCn1ccnc1)c1ccc2[nH]ccc2c1 [N-[3-(1H-Imidazol-1-yl)propyl]-1H-indole-5-carboxamide] | – | 133 mm Hg
15 | COc1ccc2[nH]c(C(=O)NCCCn3ccnc3)cc2c1 [N-[3-(1H-Imidazol-1-yl)propyl]-5-methoxy-1H-indole-2-carboxamide] | 96% | –
16 | Cc1nccn1CCCNC(=O)c1cc2ccccc2[nH]1 [N-[3-(2-Methyl-1H-imidazol-1-yl)propyl]-1H-indole2-carboxamide] | 44% | –
17 | O=C(NCCCn1ccnc1-c1ccccc1)c1cc2ccccc2[nH]1 [N-[3-(2-Phenyl-1H-imidazol-1-yl)propyl]-1H-indole-2-carboxamide] | 91% | –
18 | Cc1cn(CCCNC(=O)c2cc3ccccc3[nH]2)cn1 [N-[3-(4-Methyl-1H-imidazol-1-yl)propyl]-1H-indole-2-carboxamide] | 100% | 131 mm Hg
19 | O=C(NCCCCn1ccnc1)c1cc2ccccc2[nH]1 [N-[4-(1H-Imidazol-1-yl)butyl]-1H-indole-2-carboxamide] | 100% | 137 mm Hg
